# How the values were obtained:
# [1] = cited from earlier work; for anesthetic properties / utility: prior art statement (fluorocyclobutanes: Larsen 1969 review)
# [2] = standard test for evaluation of inhalation anesthetics in mice (rotating drum, 10 min exposure); assay type: in vivo; conditions: mouse, in vivo, inhaled or intranasal; calculated from AC50 and LC50 minimum concentrations; read-out: AI (anesthetic index)
# Method: (§1) In this test, mice were exposed to the compound for a period of 10 minutes in a rotating drum. Observations were made of the pinch reflex, the corneal reflex and the return of the righting reflex. At least four graded doses were employed to determine the minimum concentration required to anesthetized 50% of the mice (AC50) and the minimum concentration required to kill 50% of the mice (LC50). The anesthetic index (AI) was then calculated from these minimum concentrations.
# [3] = system: mice; test: as above; assay type: in vivo; conditions: mice, inhalation, 10 minutes exposure, rotating drum; % volume
# Method: as §1
SMILES,anesthetic properties / utility [1],selectivity ratio at 10 min [2],LC50 (minimum concentration required to kill 50% of the mice) [3],further results
"FC1(F)C(F)(F)C(F)(Cl)C1(F)Cl (centres unmarked) [1,2-dichlorohexafluoro-]",–,–,–,toxicity ([1]; Larsen 1969 review): toxic
"FC1C(F)C(F)(F)C1(F)F (centres unmarked) [1,2-dihydrohexafluoro-]",possesses anesthetic properties,–,–,–
"COC1(F)C(F)(F)C(F)(F)C1(F)Cl (centres unmarked) [Example 1, 1-chloro-2-methoxy-1,2,3,3,4,4-hexafluorocyclobutane]",–,~2,7-8%,–
"COC1CC(F)(F)C1(F)Cl (centres unmarked) [Example 2, 1-chloro-2methoxy-1,4,4-trifluorocyclobutane]",–,> 2,> 2%,–
"COC1(F)C(F)(F)C(F)(F)C1(F)Br (centres unmarked) [Example 3, 1-bromo-2-methoxy-1,2,3,3,4,4-hexafluorocyclobutane]",–,> 2.5,> 2.5%,–
C1CCCC1 [cyclopentane],no medical utility,–,–,–
C1CC1 [cyclopropane],effective if inflammable anesthetic,–,–,–
FC1(F)C(F)(F)C(F)(F)C1(F)F [octafluoro-],inactive,–,–,–

# Reference: patent US3958013A, “Halogenated cyclobutyl ether anesthetics” (W. R. Grace & Co., priority 1975, dated 1976)
